Here are results for two compounds from patent US11596623B2, “Methods for treating virus infection or proliferation” (HOWARD UNIVERSITY, priority 2018, dated 2023).

Series [1] addresses T1, recombinant RACK1A protein (Oryza sativa subsp. japonica, UniProt Q6L4F8).
T1 construct: His tag (C); made in house; host or cells: E. coli BL21(DE3)
The series is described as follows: Surface Plasmon Resonance (SPR) binding assay. The following applies: immobilized recombinant RACK1A, KD50=kd/ka. Set-up: species or system rice. As for the experimental part:
SD-29 (left panel) and SD-29-12 (right panel) were separately injected three times on the CM5 chip at 0, 1.56 μM, at 3.13 μM, 6.25 μM, 12.5 μM, 25 μM, 50 μM, and 100 μM (top sensor) concentrations (left panel) and at 3.13 μM, 6.25 μM, 12.5 μM, 25 μM, 50 μM, and 100 μM (top sensor) concentrations (right panel).
To obtain in vitro confirmation of the binding of the isolated compounds to the purified RACK1 protein, the small compound SD-29 and its structural analog SD29-12 were evaluated for their binding potential with the recombinant RACK1A proteins using the Surface Plasmon Resonance (SPR) chip. SPR experiments were carried out with a Biacore T200 equipped with a CM5 sensor chip. Briefly, recombinant RACK1A cysteine-tagged protein was immobilized on flow cell (FC) 2 in HEPES buffered saline (10 mM Hepes, pH 7.4, and 150 mM NaCl, 3 mM CaCl2)) using a thiol-coupling kit according to the manufacturer's protocol, resulting in immobilization levels of 4580 response units (RU). FC1 was only activated and inactivated and used as a reference. SD-29 stock solution was diluted to a final concentration of 100, 75, 50, 25, 10 μM and 1 μM injected in 10 mM Hepes, 150 mM NaCl, 3 mM CaCl2), 1% DMSO, and 0.5% P20. Each injection was repeated three times for 60 s. […] KD50 is calculated by the equation: KD50=kd/ka; kd—dissociation rate constant, ka—association rate constant. […]

The subject of a further series is RACK1A protein. In words: RACK1 protein expression under salt stress, western blot. Type of series: in vivo. The following applies: Arabidopsis lysates. The source says:
The abundant leaf protein Rubisco large subunit (RbcL) was used as a loading control for the blot. The 37 kD RACK1 band was absent from the genetic knockout of RACK1 plants (double mutant-rack1ab lane).
The reported positive expression of RACK1A protein under salt stress condition in Arabidopsis has led us to examine the RACK1A expression in the presence and absence of the inhibitor compounds during salt stresses. We determined that the RACK1A protein expression was specifically modulated by the inhibitor compounds when the lysates with salt or without salt in the presence and absence of the small compounds were probed with an antibody raised by using the full length RACK1A protein as antigen (Agrisera, Vännäs, Sweden, FIG. 2C). […] However, whether the effect of SD29-12 is Arabidopsis salt stress specific condition needs further experimental evidence. As the antibody cross-reacts with all three RACK1 isoforms in Arabidopsis, we used the double knockout (rack1ab) as a negative control on the blot (triple mutant is lethal at the early seedling stage). The large subunit of the abundant leaf protein rubisco (RbcL) was used as loading control for this blot. As the results support the in-silico based prediction, we set out to investigate the effect of the compounds on the mammalian RACK1 based virus proliferation.

The subject of another series is HSV-1 ICP0. In words: Real-time RT-PCR of HSV-1 ICP0 transcript in HEp-2 cells. Type of series: cell-based. The following applies: 12 and 24 hpi, versus DMSO. An excerpt:
The total transcript levels were quantified using actin expression as an internal control. The cDNA obtained immediately after the virus and drug transfection(s) was set as a baseline value. The normalized expression values were transformed to the log 10 value. The data plot represents mean t standard error calculated from three replicates.
Following instructions of the manufacturers, total RNA was isolated using Tri Reagent® (Ambion, Inc., Austin, Tex.). To quantitatively examine the mRNA level of HSV-1 ICP0 from the infected cells, real-time RT-PCR was undertaken using the QuantiTect SYBR Green RT-PCR kit (QIAGEN, Valencia, Calif.). […] Fluorescence (captured at 80° C.) was determined to be absent from the signal generated by primer dimers. Data were collected and recorded by the BIORAD CFX Manager software. The relative quantity of the ICP0 transcripts at the indicated time points was normalized to the relative quantity of the reference gene actin at the same time points and then the log10 copy number of the normalized RNA transcripts were calculated and presented on a bar chart. A melting temperature curve analysis was obtained by measuring (after the amplification cycles) the fluorescence during a period of warming from 60° C. to 95° C. […]

The next series concerns HSV-1. The series is described as follows: Plaque formation unit (pfu) assay. Type of series: cell-based. As for the experimental part: The viral plaque assay was performed as previously described [Tang Q, Li L, Ishov A M, Revol V, Epstein A L, Maul G G. Determination of minimum herpes simplex virus type 1 components necessary to localize transcriptionally active DNA to ND10. J Virol. 2003; 77:5821-28.] with slight modifications. The HSV-1 strain 17 was diluted serially in a volume of 1 mL. Then 300 ul of the virus was added onto confluent HEp-2 cell monolayers in 12-well plates; each dilution had 3 wells. After adsorption for 2 h, the medium was removed and the cells were washed twice with serum-free DMEM and overlaid with phenol-free DMEM containing 5% FCS, 0.5% low-melting point agarose (GIBCO), and 1% penicillin-streptomycin. The cells were incubated at 37° C. for 48 hours. Neutral red was added on the agarose to stain the live cells. The plaques were counted and reported as pfu per mL. Mean pfu was determined after averaging the number of pfu from different dilutions. Student's t-tests were used to statistically analyze differences between the groups; a p-value lower than 0.005 was used as the threshold for a significant difference.
To assess the efficacy of SD-29 on the HSV-1 proliferation, a plaque assay was performed. We wanted to quantitatively assess whether SD-29 could inhibit viral replication. Because HSV-1 was able to enter cultured HEp-2 cells, we evaluated whether this entry led to productive virus replication.
In Table 1, confluent monolayers of HEp-2 cells were infected with serially diluted HSV-1 virus and were fixed and Giemsa stained at 0, 6, 12, and 24 hr post infection. The numbers of plaques were visualized. The number of plaques formed post infection decreased in the presence of SD-29 in a time-dependent manner.

In another series the test system is HEp-2 cells. In words: Trypan blue exclusion cell viability. Type of series: cell-based. The following applies: 24-hour treatment. How it is done: In order to assess whether the compounds are producing any toxicity that can led to the cell deaths, we evaluated the cell viability by the trypan blue exclusion method. As long-term inhibition of RACK1 expression has been reported to cell cycle arrest, we limited our experimental treatments to 24 h and evaluated the cell viability of almost full confluent cells after 24 h of compound treatment.
In table 2, the viability of cells was measured with Trypan blue exclusion assay in a Cellometer (Nexcelom, Lawrence, Mass.). The percentage survival of the compound treated cells was evaluated along with the DMSO treated cells. The values represent the mean±SE of three separate well based replicates.

Another series relates to HSV1-Luc (R8411). In words: HSV1-Luc bioluminescence luciferase assay in HEp-2 cells. The following applies: 10 μM. Type of series: cell-based, HSV-1. As for the experimental part: (A) Hep-2 cells were incubated with the indicated compounds in the presence of HSV1-Luc virus at a concentration of 4×10^6 pfu/ml media. (B) Quantification of the luciferase signal from the samples in panel (A). Signals from three replicates from two separate experiments were combined to generate the average and the standard error bar.
(§1) To 80-90% confluent HEp-2 cells, HSV-1-Luc (R8411) are added at a concentration of 2×10e^6 pfu/ml along with indicated concentration of inhibitor compounds. After the described incubation period, luciferase activity is evaluated from bioluminescence images acquired by a Perkin Elmer IVIS Spectrum Imaging system immediately after adding luciferase substrate (D-luciferin, Gold Bio Technology) at a concentration of 400 μg/mL in medium. Bioluminescence intensity in different wells is quantified in units of photons per second per centimetre squared per steradian (p/s/cm^2/sr) by drawing a polygonal region of interest over the signals in images using Living Image 3.0 software (Caliper Life Sciences).
as §1, with “cells, HSV1-Luc” for “cells, HSV-1-Luc”, “(R8411) was” for “(R8411) are”, “activity was” for “activity is”, “wells was” for “wells is”, “per centimeter” for “per centimetre”
To visualize the effect of the drugs on the proliferation of HSV-1, a luciferase tagged HSV-1 F strain expressing luciferase (R8411 mutant) under the control of ICP27 promoter was obtained [Horsburgh B C, Hubinette M M, Tufaro F. Genetic manipulation of herpes simplex virus using bacterial artificial chromosomes. Methods Enzymol. 1999; 306:337-52]. […] The same samples after incubation of 48 h were used to assay for HSV-1 ICP0 and RACK1 protein expression (B of FIG. 5). Depletion of RACK1 by the compounds correlated with the depletion of the viral ICP0 protein confirming earlier results shown in B of FIG. 3.

T1 sequence (Q6L4F8 whole entry): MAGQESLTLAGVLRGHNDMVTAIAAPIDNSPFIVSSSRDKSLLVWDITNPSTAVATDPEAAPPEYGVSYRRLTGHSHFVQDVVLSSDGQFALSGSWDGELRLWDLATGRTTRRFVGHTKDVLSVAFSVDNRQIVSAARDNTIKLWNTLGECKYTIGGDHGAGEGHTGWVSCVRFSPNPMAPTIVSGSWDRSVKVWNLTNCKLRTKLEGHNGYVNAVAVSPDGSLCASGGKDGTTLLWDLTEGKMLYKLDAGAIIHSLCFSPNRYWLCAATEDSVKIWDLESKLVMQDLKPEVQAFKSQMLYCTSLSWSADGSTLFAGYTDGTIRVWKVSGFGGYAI

Turning to `COc1ccc(-c2nnc(SCC(=O)O)n2N)cc1` [SD29-12], the Kd in series [1] came to 58 µM. Besides, the “RACK1 protein expression under salt stress” value in the series on RACK1A protein is “not”. Besides, the “ICP0 mRNA level” value in the series on HSV-1 ICP0 is listed as “essentially showed the same level of ICP0 mRNA”. Besides, the Plaque formation unit is 0 ± 0 PFU/mL with HSV-1 (0 hpi), 3.8 ± 0.07 × 10^2 PFU/mL with HSV-1 (6 hpi), 3.6 ± 0.04 × 10^3 PFU/mL with HSV-1 (12 hpi) and 2.6 ± 0.03 × 10^6 PFU/mL in the series with HSV-1 (24 hpi). Besides, the “HEp-2 Cell viability, Mean” value in the series with HEp-2 cells (10 μM) was determined as 92.7%; with HEp-2 cells (100 μM), 97.7%.

As for `Nc1nc2c(ncn2COCCO)c(=O)[nH]1` [acyclovir, reference compound], the HSV1-Luc proliferation result in the series on HSV1-Luc (R8411) was “showed inhibition of the HSV1-Luc proliferation”.
